Several values for one entry are separate records, joined by “and”; a condition that tells them apart may be missing. Equal values may be shown once.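 Method: 48-hour compound exposure of cells in 96-well plates, five concentrations, linear interpolation of endpoints. The concentration for 50% growth inhibition is given as GI50. At the TGI there is no net growth.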
What was measured:
Assay in all cases: DTP human tumour cell line panel, 48 h
786-0 renal = system: 786-0 renal
A498 renal = system: A498 renal
CAKI-1 renal = system: CAKI-1 renal
HS 578T breast = system: HS 578T breast
LOX IMVI melanoma = system: LOX IMVI melanoma
NCI-H226 lung = system: NCI-H226 lung
OVCAR-5 ovarian = system: OVCAR-5 ovarian
RPMI-8226 leukemia = system: RPMI-8226 leukemia

| Compound | GI50 (786-0 renal) | TGI (786-0 renal) | GI50 (A498 renal) | TGI (A498 renal) | GI50 (CAKI-1 renal) | TGI (CAKI-1 renal) | GI50 (HS 578T breast) | TGI (HS 578T breast) | GI50 (LOX IMVI melanoma) | TGI (LOX IMVI melanoma) | GI50 (NCI-H226 lung) | TGI (NCI-H226 lung) | GI50 (OVCAR-5 ovarian) | TGI (OVCAR-5 ovarian) | GI50 (RPMI-8226 leukemia) | TGI (RPMI-8226 leukemia) |
| --- | --- | --- | --- | --- | --- | --- | --- | --- | --- | --- | --- | --- | --- | --- | --- | --- |
| CC#CC(=O)N1CC[C@@H](n2c(=O)n(-c3ccc(Oc4ccccc4)cc3)c3c(N)ncnc32)C1 | 21.5 µM | > 100 µM | 6.38 µM | 44.6 µM | 13.8 µM | > 100 µM | 22.5 µM | > 100 µM | 18.6 µM | 83.4 µM | 23.1 µM | > 100 µM | 46.6 µM | > 100 µM | 14.7 µM | 66.3 µM |
| Oc1c(CN2CCN(c3ccccc3F)CC2)cc(Br)c2cccnc12 | 2.42 µM | 12.6 µM | 0.695 µM | 9.23 µM | 0.376 µM | 9.26 µM | 1.82 µM | 55.5 µM | 0.676 µM | 10.3 µM | 1.17 µM | 9.5 µM | 5.36 µM | 49 µM | 0.791 µM | 15.6 µM |
| Cc1c(-c2nnc(-c3cc(Cl)c(Cl)cc3Cl)o2)nnn1-c1ccnc2c(C(F)(F)F)cccc12 | 33.8 µM | > 100 µM | 30.3 µM | 76.3 µM | 31.4 µM | 94.8 µM | 25.6 µM | 65.6 µM | 19.7 µM | 38.7 µM | 28.7 µM | 91.7 µM | 32.1 µM | 94.2 µM | 19.9 µM | 54.1 µM |
| CC(CN)[C@@H]1CC[C@]2(CO)CC[C@]3(C)[C@H](CC[C@@H]4[C@@]5(C)CCC(N)C(C)(C)[C@@H]5CC[C@]43C)[C@@H]12 (stereo partly specified) | 1.58 µM | 3.38 µM | 1.84 µM | 3.31 µM | 1.63 µM | 3.12 µM | – | – | 1.66 µM | 3.33 µM | 1.95 µM | 4.04 µM | 1.85 µM | 3.58 µM | 2.06 µM | 4.58 µM |
| CSC1(CC(=O)N2CCCCC2)C(=O)Nc2ccccc21 (stereo unspecified) | – | > 100 µM | – | > 100 µM | – | – | – | > 100 µM | – | > 100 µM | – | > 100 µM | – | > 100 µM | – | > 100 µM |
| Fc1cccc(-c2[nH]nc3nc(Nc4cccnc4)sc23)c1 | > 100 µM | > 100 µM | > 100 µM | > 100 µM | 3.72 µM | > 100 µM | – | – | 3.68 µM | > 100 µM | > 100 µM | > 100 µM | > 100 µM | > 100 µM | 5.79 µM | > 100 µM |
| CC(C)c1ccc2nc3ccc(C(=O)NCCN4CCN(c5ccccc5)CC4)cn3c(=O)c2c1 | – | > 100 µM | – | > 100 µM | – | > 100 µM | – | > 100 µM | – | – | – | > 100 µM | – | > 100 µM | – | – |
| COc1ccc(C2c3c(-c4ccccc4)nn(-c4ccccc4)c3Oc3ncn4nc(CC#N)nc4c32)cc1OC (stereo unspecified) | 8.4 µM and 2.09 µM | 20.7 µM and 5.51 µM | > 100 µM and 10.8 µM | > 100 µM and 31.3 µM | – | > 100 µM and 13.8 µM | – | 59.1 µM and 6.86 µM | 15.7 µM and 3.63 µM | 35.8 µM and 26.3 µM | 15.9 µM and 2.09 µM | 39 µM and 6.28 µM | – | > 100 µM and 13.8 µM | > 100 µM and 20.9 µM | > 100 µM |
| Clc1ccc2c(NCCNc3nc(N4CCCC4)nc4ccccc34)ccnc2c1 | 1.17 µM | 3.18 µM | 1.8 µM | 3.4 µM | – | – | 2.34 µM | 7 µM | 0.863 µM | 2.34 µM | 1.95 µM | 4.06 µM | 2.15 µM | 6.38 µM | 1.76 µM | 4.96 µM |

From PubChem BioAssay (NCI)
